Results reported in US9920032B2, “Heterocyclic compounds useful as pim kinase inhibitors” (Incyte Corporation, priority 2015, dated 2018).

Key:
Type in all cases: biochemical
Pim-1 = Pim-1 (Homo sapiens (Human), UniProt P11309); assay: Pim-1 kinase assay; details: 1 mM ATP; read-out: PIM1 IC50
Protocol: (§1) Pim-1 and Pim-3 kinase assays—20 μL reactions were run in white 384 well polystyrene plates dotted with 0.8 μL compound/DMSO in the assay buffer (50 mM Tris, pH 7.5, 0.01% Tween-20, 5 mM mgCl2, 0.01% BSA, 5 mM DTT), containing 0.05 μM Biotin-labeled BAD peptide substrate (AnaSpec 62269), 1 mM ATP, and 2.5 pM (Pim-1, Invitrogen PV3503) or 1.25 pM (Pim-3, Millipore 14-738) enzyme for 1 h at 25° C. Reactions were stopped by addition of 10 μL STOP Buffer (150 mM Tris, pH=7.5, 150 mM NaCl, 75 mM EDTA, 0.01% Tween-20, 0.3% BSA,) supplemented with Phospho-Bad (Ser112) Antibody (Cell Signaling 9291) diluted 666-fold, and Streptavidin donor beads (PerkinElmer 6760002) along with Protein-A acceptor beads (PerkinElmer 6760137) at […]. Supplementation of the STOP buffer with beads and stopping the reactions were done under reduced light. Prior to the stopping reactions STOP buffer with beads was preincubated for 1 h in the dark at room temperature. After stopping the reactions, plates were incubated for 1 h in the dark at room temperature before reading on a PHERAstar FS plate reader (BMG Labtech) under reduced light.

Pim-2 = Pim-2 (Homo sapiens (Human), UniProt Q9P1W9); assay: Pim-2 kinase assay; details: 1 mM ATP; read-out: PIM2 IC50
Protocol: Pim-2 kinase assay—20 μL reactions were run in white 384 well polystyrene plates dotted with 0.8 μL compound/DMSO in the assay buffer (50 mM Tris, pH 7.5, 0.01% Tween-20, 5 mM mgCl2, 0.01% BSA, 5 mM DTT), containing 0.05 μM Fluorescein-labeled CREBtide peptide substrate (Invitrogen PV3508), 1 mM ATP, and 1 nM enzyme (Invitrogen PV3649) for 2 h at 25° C. Reactions were stopped by addition of 10 μL TR-FRET Dilution Buffer (Invitrogen PV3574) with 30 mM EDTA and 1.5 nM LanthaScreen Tb-CREB pSer133 antibody (Invitrogen PV3566). After 30 min. incubation at room temperature, plates were read on a PHERAstar FS plate reader (BMG Labtech).

Pim-3 = Pim-3 (Homo sapiens (Human), UniProt Q86V86); assay: Pim-3 kinase assay; details: 1 mM ATP; read-out: PIM3 IC50
Protocol: as §1

Chain of Pim-2 (Q9P1W9 whole entry): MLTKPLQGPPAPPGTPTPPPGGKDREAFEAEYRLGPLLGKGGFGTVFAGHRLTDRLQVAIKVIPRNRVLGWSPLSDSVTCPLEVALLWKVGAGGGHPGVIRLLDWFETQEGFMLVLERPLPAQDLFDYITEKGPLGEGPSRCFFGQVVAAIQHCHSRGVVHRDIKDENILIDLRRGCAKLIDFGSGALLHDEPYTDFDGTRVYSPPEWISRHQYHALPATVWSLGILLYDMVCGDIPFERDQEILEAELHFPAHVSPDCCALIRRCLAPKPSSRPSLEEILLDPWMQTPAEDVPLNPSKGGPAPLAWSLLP
Chain of Pim-1 (P11309 whole entry): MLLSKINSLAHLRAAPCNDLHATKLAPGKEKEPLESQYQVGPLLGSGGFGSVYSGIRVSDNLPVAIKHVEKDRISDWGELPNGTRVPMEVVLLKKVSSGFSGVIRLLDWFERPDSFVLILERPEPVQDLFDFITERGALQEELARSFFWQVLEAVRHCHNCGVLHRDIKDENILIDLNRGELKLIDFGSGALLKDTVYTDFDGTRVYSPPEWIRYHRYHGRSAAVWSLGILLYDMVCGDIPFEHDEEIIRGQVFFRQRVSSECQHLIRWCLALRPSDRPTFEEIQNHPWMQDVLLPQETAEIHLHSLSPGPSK

| Compound | IC50 (Pim-1) | IC50 (Pim-2) | IC50 (Pim-3) |
| --- | --- | --- | --- |
| C[C@@H]1C[C@H](N)C[C@H](c2ccncc2NC(=O)c2ccc(F)c3cc(N(C)C4CCC4)cnc23)C1 [Example 24, N-{4-[(1R,3S,5S)-3-Amino-5-methylcyclohexyl]pyridin-3-yl}-3-[cyclobutyl(methyl)amino]-5-fluoroquinoline-8-carboxamide] | ≤ 10 nM | 100 to 1000 nM | ≤ 10 nM |
| C[C@@H]1C[C@H](N)C[C@H](c2ccncc2NC(=O)c2ccc(F)c3cc(N(C)C)cnc23)C1 [Example 25, N-{4-[(1R,3S,5S)-3-Amino-5-methylcyclohexyl]pyridin-3-yl}-3-(dimethylamino)-5-fluoroquinoline-8-carboxamide] | ≤ 10 nM | ≤ 100 nM | ≤ 10 nM |
| C[C@@H]1C[C@H](N)C[C@H](c2ccncc2NC(=O)c2ccc(F)c3cc(NCCF)cnc23)C1 [Example 26, N-{4-[(1R,3S,5S)-3-Amino-5-methylcyclohexyl]pyridin-3-yl}-5-fluoro-3-[(2-fluoroethyl)amino]quinoline-8-carboxamide] | ≤ 10 nM | ≤ 100 nM | ≤ 10 nM |
| C[C@@H]1C[C@H](N)C[C@H](c2ccncc2NC(=O)c2ccc(F)c3cc(NCC(F)F)cnc23)C1 [Example 27, N-{4-[(1R,3S,5S)-3-Amino-5-methylcyclohexyl]pyridin-3-yl}-3-[(2,2-difluoroethyl)amino]-5-fluoroquinoline-8-carboxamide] | ≤ 10 nM | ≤ 100 nM | ≤ 10 nM |
| C[C@@H]1C[C@H](N)C[C@H](c2ccncc2NC(=O)c2ccc(F)c3cc(N4CCCC(F)(F)C4)cnc23)C1 [Example 28, N-{4-[(1R,3S,5S)-3-Amino-5-methylcyclohexyl]pyridin-3-yl}-3-(3,3-difluoropiperidin-1-yl)-5-fluoroquinoline-8-carboxamide] | ≤ 10 nM | ≤ 100 nM | ≤ 10 nM |
| C[C@@H]1C[C@H](N)C[C@H](c2ccncc2NC(=O)c2ccc(F)c3cc(N4CCN(C)CC4)cnc23)C1 [Example 30, N-{4-[(1R,3S,5S)-3-Amino-5-methylcyclohexyl]pyridin-3-yl}-5-fluoro-3-(4-methylpiperazin-1-yl)quinoline-8-carboxamide] | ≤ 10 nM | 100 to 1000 nM | ≤ 10 nM |
| C[C@@H]1C[C@H](N)C[C@H](c2ccncc2NC(=O)c2ccc(F)c3cc(C4CCOCC4)cnc23)C1 [Example 31, N-{4-[(1R,3S,5S)-3-Amino-5-methylcyclohexyl]pyridin-3-yl}-5-fluoro-3-(tetrahydro-2H-pyran-4-yl)quinoline-8-carboxamide] | ≤ 10 nM | 100 to 1000 nM | ≤ 10 nM |
| C[C@@H]1C[C@H](N)C[C@H](c2ccncc2NC(=O)c2ccc(F)c3cc(N4CCOC[C@H]4C)cnc23)C1 [Example 32, N-(4-((1R,3S,5S)-3-Amino-5-methylcyclohexyl)pyridin-3-yl)-5-fluoro-3-((R)-3-methylmorpholino)quinoline-8-carboxamide] | ≤ 10 nM | ≤ 100 nM | ≤ 10 nM |
| C[C@@H]1C[C@H](N)C[C@H](c2ccncc2NC(=O)c2ccc(F)c3cc(N4CCOC[C@@H]4C)cnc23)C1 [Example 33, N-(4-((1R,3S,5S)-3-Amino-5-methylcyclohexyl)pyridin-3-yl)-5-fluoro-3-((S)-3-methylmorpholino)quinoline-8-carboxamide] | ≤ 10 nM | ≤ 100 nM | ≤ 10 nM |
| C[C@@H]1C[C@H](N)C[C@H](c2ccncc2NC(=O)c2ccc(F)c3cc(N4CCC[C@H]4C)cnc23)C1 [Example 34, N-(4-((1R,3S,5S)-3-Amino-5-methylcyclohexyl)pyridin-3-yl)-5-fluoro-3-((R)-2-methylpyrrolidin-1-yl)quinoline-8-carboxamide] | ≤ 10 nM | ≤ 100 nM | ≤ 10 nM |
| CC1CN(c2cnc3c(C(=O)Nc4cnccc4[C@@H]4C[C@H](C)C[C@H](N)C4)ccc(F)c3c2)C(C)CO1 (stereo partly drawn) [Example 35, N-(4-((1R,3S,5S)-3-Amino-5-methylcyclohexyl)pyridin-3-yl)-3-(2,5-dimethylmorpholino)-5-fluoroquinoline-8-carboxamide] | ≤ 10 nM | 1000 to 10000 nM | 10 to 50 nM |
| CC1CCC(C)N1c1cnc2c(C(=O)Nc3cnccc3[C@@H]3C[C@H](C)C[C@H](N)C3)ccc(F)c2c1 (stereo partly drawn) [Example 36, N-(4-((1R,3S,5S)-3-Amino-5-methylcyclohexyl)pyridin-3-yl)-3-(2,5-dimethylpyrrolidin-1-yl)-5-fluoroquinoline-8-carboxamide] | ≤ 10 nM | 100 to 1000 nM | 10 to 50 nM |
| CC1CN(c2cnc3c(C(=O)Nc4cnccc4[C@@H]4C[C@H](C)C[C@H](N)C4)ccc(F)c3c2)CC(C)O1 (stereo partly drawn) [Example 37, N-(4-((1R,3S,5S)-3-Amino-5-methylcyclohexyl)pyridin-3-yl)-3-(2,6-dimethylmorpholino)-5-fluoroquinoline-8-carboxamide] | ≤ 10 nM | 1000 to 10000 nM | 10 to 50 nM |
| C[C@@H]1C[C@H](N)C[C@H](c2ccncc2NC(=O)c2ccc(F)c3cc(N4CCO[C@@H](C)C4)cnc23)C1 [Example 38, N-(4-((1R,3S,5S)-3-Amino-5-methylcyclohexyl)pyridin-3-yl)-5-fluoro-3-((S)-2-methylmorpholino)quinoline-8-carboxamide] | ≤ 10 nM | 100 to 1000 nM | 10 to 50 nM |
| C[C@@H]1C[C@H](N)C[C@H](c2ccncc2NC(=O)c2ccc(F)c3cc(N4CCC[C@@H]4C)cnc23)C1 [Example 39, N-(4-((1R,3S,5S)-3-Amino-5-methylcyclohexyl)pyridin-3-yl)-5-fluoro-3-((S)-2-methylpyrrolidin-1-yl)quinoline-8-carboxamide] | ≤ 10 nM | ≤ 100 nM | 10 to 50 nM |
| C[C@@H]1C[C@H](N)C[C@H](c2ccncc2NC(=O)c2ccc(F)c3cc(N4CCC(F)(F)CC4)cnc23)C1 [Example 40, N-(4-((1R,3S,5S)-3-Amino-5-methylcyclohexyl)pyridin-3-yl)-3-(4,4-difluoropiperidin-1-yl)-5-fluoroquinoline-8-carboxamide] | ≤ 10 nM | 100 to 1000 nM | ≤ 10 nM |
| C[C@@H]1C[C@H](N)C[C@H](c2ccncc2NC(=O)c2ccc(F)c3cc(N4CCC(C)(O)CC4)cnc23)C1 [Example 41, N-(4-((1R,3S,5S)-3-Amino-5-methylcyclohexyl)pyridin-3-yl)-5-fluoro-3-(4-hydroxy-4-methylpiperidin-1-yl)quinoline-8-carboxamide] | 10 to 50 nM | 100 to 1000 nM | 10 to 50 nM |
| C[C@@H]1C[C@H](N)C[C@H](c2ccncc2NC(=O)c2ccc(F)c3cc(N(C)CC(F)F)cnc23)C1 [Example 42, N-(4-((1R,3S,5S)-3-Amino-5-methylcyclohexyl)pyridin-3-yl)-3-((2,2-difluoroethyl)(methyl)amino)-5-fluoroquinoline-8-carboxamide] | ≤ 10 nM | ≤ 100 nM | ≤ 10 nM |
| CC1CCCCN1c1cnc2c(C(=O)Nc3cnccc3[C@@H]3C[C@H](C)C[C@H](N)C3)ccc(F)c2c1 (stereo partly drawn) [Example 43, N-(4-((1R,3S,5S)-3-Amino-5-methylcyclohexyl)pyridin-3-yl)-5-fluoro-3-(2-methylpiperidin-1-yl)quinoline-8-carboxamide] | ≤ 10 nM | ≤ 100 nM | ≤ 10 nM |
| C[C@@H]1C[C@H](N)C[C@H](c2ccncc2NC(=O)c2ccc(F)c3cc(N4CCC(O)CC4)cnc23)C1 [Example 44, N-(4-((1R,3S,5S)-3-Amino-5-methylcyclohexyl)pyridin-3-yl)-5-fluoro-3-(4-hydroxypiperidin-1-yl)quinoline-8-carboxamide] | ≤ 10 nM | 100 to 1000 nM | ≤ 10 nM |
| C[C@@H]1C[C@H](N)C[C@H](c2ccncc2NC(=O)c2ccc(F)c3cc(N4CCC(C#N)CC4)cnc23)C1 [Example 45, N-(4-((1R,3S,5S)-3-Amino-5-methylcyclohexyl)pyridin-3-yl)-3-(4-cyanopiperidin-1-yl)-5-fluoroquinoline-8-carboxamide] | ≤ 10 nM | 100 to 1000 nM | 10 to 50 nM |
| CC1CCN(c2cnc3c(C(=O)Nc4cnccc4[C@@H]4C[C@H](C)C[C@H](N)C4)ccc(F)c3c2)CC1 [Example 46, N-(4-((1R,3S,5S)-3-Amino-5-methylcyclohexyl)pyridin-3-yl)-5-fluoro-3-(4-methylpiperidin-1-yl)quinoline-8-carboxamide] | ≤ 10 nM | 100 to 1000 nM | ≤ 10 nM |
